Laboratory results: article PMC9960307, “Design, Synthesis, Biological Evaluation, and Molecular Dynamics Simulation of Influenza Polymerase PB2 Inhibitors” (Molecules, 2023)
“And” between values parts separate entries of the source, which are not always exact repeats. Identical values can stand only once. Like-named read-outs stand apart in the source and are kept apart here.

Columns and labels:
[1] = test system: virus-free cells; set-up: method as in PMID 25547360; settings: incubated in virus-free cells; cited from earlier work
[2] = in vitro; settings: human, microsomes, pH 7.4, Microsome T1/2, Human, human liver microsomes, 1 μM
[3] = target: T1, influenza A/WSN/1933 (H1N1) PB2 CBD (aa.318-486) (Influenza A virus, UniProt P03427); test: SPR competitive binding assay (Biacore T200)
T1 construct: influenza A/WSN/1933 (H1N1) PB2 CBD (aa.318-486); purchased
Method: Biomolecular interaction analysis based on surface plasmon resonance (SPR) assays was performed using VX-787 and comp. I and II at concentrations ranging from 20 to 0.156 µM to investigate their competitive binding affinities with PB2 (Table 1).
Commercial companies express and purify HIN1 PB2 CBD protein, which provides influenza A/WSN/1933 (H1N1) PB2 CBD (aa.318-486). Using a Biacore T200 (GE Healthcare) and a running buffer of which contains a solution of 1 × PBS-P + 0.02 M phosphate buffer, 2.7 mM KCl, 0.137 M NaCl, and 0.05% Tween 20, H1N1 PB2 was immobilized to a level of 4900 response units (RUs). Serial dilutions of small molecules were injected, ranging in concentration from 20 µM to 0.156 µM. GE Healthcare’s Biacore Evaluation Software was used to fit the resulting data to the affinity binding model.

[4] = test system: influenza virus A/Puerto Rico/8/1934 (H1N1); test: Cytopathic effect (CPE) inhibition assay, H1N1; assay type: cell-based, influenza A/Puerto Rico/8/1934 (H1N1); settings: MDCK, 72 h, read-out: H1N1 IC50
[5] = in vitro; settings: rat, microsomes, pH 7.4, Microsome T1/2, Rat, rat liver microsomes, 1 μM
[6] = set-up: method as in PMID 32604406; settings: phase II clinical trial; cited from earlier work
[7] = in vitro; settings: dog
[8] = target: T2, aldehyde oxidase (AO) (Homo sapiens, UniProt Q06278); test: AO-mediated metabolic stability in human liver cytosol with/without raloxifene; assay type: in vitro ADME; settings: for sensitivity to aldehyde oxidase (AO substrate or not): human liver cytosol, in words; for half-life at 1 μM: pooled liver (hepatocyte) cytosol, pH 7.4, human liver cytoplasm, read-out: Cytoplasm T1/2, Human
T2 construct: Human liver cytosolic protein was incubated with VX-787, comp; I, and comp; II; from tissue; host or cells: pooled human liver (hepatocyte) cytosol
T2 sequence (Q06278 1-1338): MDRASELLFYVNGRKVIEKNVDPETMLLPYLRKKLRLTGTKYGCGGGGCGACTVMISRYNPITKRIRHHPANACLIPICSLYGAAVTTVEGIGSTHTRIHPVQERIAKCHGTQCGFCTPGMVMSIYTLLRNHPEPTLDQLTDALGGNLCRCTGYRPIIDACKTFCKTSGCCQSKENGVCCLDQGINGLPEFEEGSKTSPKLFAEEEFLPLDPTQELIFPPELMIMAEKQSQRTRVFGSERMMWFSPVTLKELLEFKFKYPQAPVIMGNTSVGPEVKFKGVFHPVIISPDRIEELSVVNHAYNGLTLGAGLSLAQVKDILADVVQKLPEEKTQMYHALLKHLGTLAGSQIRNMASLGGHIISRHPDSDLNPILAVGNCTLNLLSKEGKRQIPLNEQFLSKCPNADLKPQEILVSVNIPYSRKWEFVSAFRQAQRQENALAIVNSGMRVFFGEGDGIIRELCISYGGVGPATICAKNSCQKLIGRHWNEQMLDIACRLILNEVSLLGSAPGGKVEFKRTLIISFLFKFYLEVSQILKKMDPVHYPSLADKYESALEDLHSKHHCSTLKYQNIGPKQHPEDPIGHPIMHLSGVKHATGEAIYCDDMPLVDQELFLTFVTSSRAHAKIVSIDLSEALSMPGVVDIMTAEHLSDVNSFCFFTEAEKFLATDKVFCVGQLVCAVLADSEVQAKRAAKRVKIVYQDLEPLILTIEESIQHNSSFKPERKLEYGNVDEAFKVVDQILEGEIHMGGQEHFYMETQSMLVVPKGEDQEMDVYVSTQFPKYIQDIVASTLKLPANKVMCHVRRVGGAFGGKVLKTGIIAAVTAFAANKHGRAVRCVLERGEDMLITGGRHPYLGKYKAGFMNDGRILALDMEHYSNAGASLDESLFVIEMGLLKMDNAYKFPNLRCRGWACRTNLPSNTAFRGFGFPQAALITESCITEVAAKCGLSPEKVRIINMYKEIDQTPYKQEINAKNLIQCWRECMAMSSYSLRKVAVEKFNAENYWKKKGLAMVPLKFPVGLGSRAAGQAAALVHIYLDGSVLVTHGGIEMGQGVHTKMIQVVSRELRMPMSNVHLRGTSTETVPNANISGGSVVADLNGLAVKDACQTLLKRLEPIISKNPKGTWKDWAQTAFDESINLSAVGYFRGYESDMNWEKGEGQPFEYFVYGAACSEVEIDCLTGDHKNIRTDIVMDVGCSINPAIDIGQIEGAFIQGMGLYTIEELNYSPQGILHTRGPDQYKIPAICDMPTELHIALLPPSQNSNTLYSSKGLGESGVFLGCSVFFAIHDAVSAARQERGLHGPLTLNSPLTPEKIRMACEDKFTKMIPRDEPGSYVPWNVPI

[9] = oral dose 600 mg, bid, healthy volunteers; cited from earlier work
[10] = test system: influenza virus A/Hong Kong/8/68 (H3N2); test: Cytopathic effect (CPE) inhibition assay, H3N2; assay type: cell-based, influenza A/Hong Kong/8/68 (H3N2); settings: MDCK cells, MOI 0.005, 72 h, CellTiter-Glo
[11] = not given; remark: listed apart in the source
[12] = test system: influenza virus; test: CPE inhibition assay as summarised in the conclusions (strain not stated); assay type: cell-based; settings: unidentified influenza virus
[13] = not given; remark: listed apart in the source
[14] = with AO inhibitor raloxifene, 0 min
[15] = with AO inhibitor raloxifene, 15 min
[16] = with AO inhibitor raloxifene, 30 min
[17] = with AO inhibitor raloxifene, 60 min

T1 sequence (P03427 318-486): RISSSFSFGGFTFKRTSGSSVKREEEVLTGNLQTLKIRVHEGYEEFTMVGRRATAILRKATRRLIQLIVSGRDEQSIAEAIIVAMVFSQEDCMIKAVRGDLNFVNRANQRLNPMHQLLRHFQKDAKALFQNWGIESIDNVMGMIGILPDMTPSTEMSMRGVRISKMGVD

O=C(O)[C@H]1C2CCC(CC2)[C@@H]1Nc1nc(-c2c[nH]c3ncc(F)cc23)ncc1F [VX-787, pimodivir, reference compound]
cytotoxicity [1]: no cytotoxicity | half-life [2]: 5.82 h | Kd ([3]; 20 to 0.156 µM, affinity binding model, read-out: SPR KD): 152 nM | IC50 [4]: < 3 nM | half-life [5]: 4.16 h | adverse effects [6]: no serious adverse effects | viral load in patients [6]: reduce the viral load | Microsome Clh, Rat (rat liver microsomes): 1.72 mL/min/kg | Residual percentage in rat liver microsome (with NADPH, 0 min): 99.99±0.99% | Residual percentage in rat liver microsome (with NADPH, 5 min): 98.25±4.53% | Residual percentage in rat liver microsome (with NADPH, 15 min): 95.80±0.68% | Residual percentage in rat liver microsome (with NADPH, 30 min): 91.51±3.09% | Residual percentage in rat liver microsome (with NADPH, 60 min): 88.79±2.11% and 88% | Residual percentage in rat liver microsome (without NADPH, 0 min): 99.99±2.01% | Residual percentage in rat liver microsome (without NADPH, 5 min): 109.05% | Residual percentage in rat liver microsome (without NADPH, 15 min): 103.93% | Residual percentage in rat liver microsome (without NADPH, 30 min): 100.41% | Residual percentage in rat liver microsome (without NADPH, 60 min): 92.13±5.76% | CC50 [7]: > 200000 nM | sensitivity to aldehyde oxidase (AO substrate or not) [8]: indeed an AO substrate | half-life at 1 μM [8]: 2.5 h | Residual percentage in 0.5mg/ml human liver cytoplasm [8, 14]: 100.00±3.54% | Residual percentage in 0.5mg/ml human liver cytoplasm [8, 15]: 100.65±7.76% | Residual percentage in 0.5mg/ml human liver cytoplasm [8, 16]: 97.25±1.77% | Residual percentage in 0.5mg/ml human liver cytoplasm ([8]; without raloxifene, 0 min): 100.00±7.65% | Residual percentage in 0.5mg/ml human liver cytoplasm ([8]; without raloxifene, 15 min): 87.02±9.00% | Residual percentage in 0.5mg/ml human liver cytoplasm ([8]; without raloxifene, 30 min): 90.17±9.31% | Residual percentage in 0.5mg/ml human liver cytoplasm ([8]; without raloxifene, 60 min): 71.87±6.78% and 72% | safety in phase I clinical trial [9]: no safety issues | IC50 [10]: < 3 nM | Microsome Clh, Human ([11]; human liver microsomes): 1.49 mL/min/kg | Residual percentage in human liver microsome ([11]; with NADPH, 0 min): 99.99±4.23% | Residual percentage in human liver microsome ([11]; with NADPH, 5 min): 103.84±1.21% | Residual percentage in human liver microsome ([11]; with NADPH, 15 min): 91.56±7.20% | Residual percentage in human liver microsome ([11]; with NADPH, 30 min): 101.85±8.49% | Residual percentage in human liver microsome ([11]; with NADPH, 60 min): 89.33±8.96% and 89.33% | Residual percentage in human liver microsome ([11]; without NADPH, 0 min): 100.00% | Residual percentage in human liver microsome ([11]; without NADPH, 5 min): 110.26% | Residual percentage in human liver microsome ([11]; without NADPH, 15 min): 100.78% | Residual percentage in human liver microsome ([11]; without NADPH, 30 min): 113.32% | Residual percentage in human liver microsome ([11]; without NADPH, 60 min): 107.81%

O=C(O)C1C2CCC(CC2)C1Nc1nc(-n2c(=O)[nH]c3ncc(F)cc32)ncc1F [comp. I, (1R,2S,3S,4R)-3-((5-fluoro-2-(6-fluoro-2-oxo-2,3-dihydro-1H-imidazo[4,5-b]pyridin-1-yl)pyrimidin-4-yl)amino)bicyclo[2.2.2]octane-2-carboxylic acid]
half-life [2]: > 13.3 h | Kd [3]: 1400 nM | IC50 [4]: 70 ± 20 nM | half-life [5]: > 13.3 h | Residual percentage in rat liver microsome (rat, 0 min, 1 μM, pH 7.4): 100.00% | Microsome Clh, Rat (rat, 1 μM, pH 7.4): 0.53 mL/min/kg | CC50 at 72 h [7]: > 200000 nM | sensitivity to aldehyde oxidase (AO substrate or not) [8]: remains as a substrate | half-life at 1 μM [8]: > 13.3 h | Residual percentage in 0.5mg/ml human liver cytoplasm [8, 14]: 100.00±3.87% | Residual percentage in 0.5mg/ml human liver cytoplasm [8, 15]: 108.27±5.07% | Residual percentage in 0.5mg/ml human liver cytoplasm [8, 16]: 102.66±4.43% | Residual percentage in 0.5mg/ml human liver cytoplasm [8, 17]: 112.89±1.99% | Residual percentage in 0.5mg/ml human liver cytoplasm ([8]; without raloxifene, 0 min): 100.00±6.12% | Residual percentage in 0.5mg/ml human liver cytoplasm ([8]; without raloxifene, 15 min): 95.20±3.72% | Residual percentage in 0.5mg/ml human liver cytoplasm ([8]; without raloxifene, 30 min): 99.98±8.74% | Residual percentage in 0.5mg/ml human liver cytoplasm ([8]; without raloxifene, 60 min): 93% | Residual percentage in 0.5mg/ml human liver cytoplasm ([8]; without raloxifene, 60 min, listed as Comp I): 93.52±8.82% | EC50 [12]: 40 nM | IC50 [10]: 40 ± 10 nM

N=c1[nH]c2ncc(F)cc2n1-c1ncc(F)c(NC2C3CCC(CC3)C2C(=O)O)n1 [comp. II, (1R,2S,3S,4R)-3-((2-(2-amino-6-fluoro-1H-imidazo[4,5-b]20yridine-1-yl)-5-fluoropyrimidin-4-yl)amino)bicyclo[2.2.2]octane-2-carboxylic acid]
half-life [2]: > 13.3 h | Kd [3]: 1670 nM | IC50 [4]: 90 ± 50 nM | half-life [5]: > 13.3 h | CC50 at 72 h [7]: > 200000 nM | sensitivity to aldehyde oxidase (AO substrate or not) [8]: nearly unaffected | half-life at 1 μM [8]: > 13.3 h | Residual percentage in 0.5mg/ml human liver cytoplasm [8, 14]: 100.00±8.74% | Residual percentage in 0.5mg/ml human liver cytoplasm [8, 15]: 110.60±4.82% | Residual percentage in 0.5mg/ml human liver cytoplasm [8, 16]: 107.60±7.80% | Residual percentage in 0.5mg/ml human liver cytoplasm [8, 17]: 109.12±6.67% | Residual percentage in 0.5mg/ml human liver cytoplasm ([8]; without raloxifene, 0 min): 100.00±0.44% | Residual percentage in 0.5mg/ml human liver cytoplasm ([8]; without raloxifene, 15 min): 107.07±16.04% | Residual percentage in 0.5mg/ml human liver cytoplasm ([8]; without raloxifene, 30 min): 108.17±9.51% | Residual percentage in 0.5mg/ml human liver cytoplasm ([8]; without raloxifene, 60 min): barely changed | Residual percentage in 0.5mg/ml human liver cytoplasm ([8]; without raloxifene, 60 min, listed as Comp II): 103.11±2.84% | EC50 [12]: 90 nM | IC50 [10]: 70 ± 30 nM | Microsome Clh, Human ([11]; human, 1 μM, pH 7.4): 0.46 mL/min/kg | melting point [13]: 315 to 317 °C
